Reference: PubChem BioAssay AID1963829 (Molecular Pharmacology Branch, DTP, NCI, 2024)

Tested on: 935938-334-R-J1-PDC complex spheroid viability
Test: Anticancer human tumor 935938-334-R-J1-PDC patient-derived small intestine adenocarcinoma cell line growth inhibition [POLQ]
Settings: second compound 10 µM; first compound 0.00316 µM; hits give low values
Description: Multicellular complex tumor spheroid response to Polymerase (POL) inhibitors (novobiocin, ART-558, RP6685) in combination with a variety of drugs and investigational agents in selected tumor cell lines
The POL inhibitors (novobiocin, ART-558, and RP6685) were evaluated both individually and in combination with standard of care and investigational anticancer small molecules within a complex spheroid model of solid tumors. . Complex spheroids include a stromal component modeled by human endothelial cells (HUVEC) and fibroblasts modeled by human mesenchymal stem cells (MSCs). The concentration ranges selected for each drug and investigational agent were based upon clinically achievable concentrations if the clinical Cmax of the agent was known.
Compounds. The drugs and investigational agents: novobiocin (NSC847541), ART-558 (NSC835418), RP-6685 (NSC848927), peposertib (NSC802822), ceralasertib (NSC780249), elimusertib (NSC800525), camonsertib (NSC841442), AZD-1390 (NSC803789), olaparib (NSC753686), talazoparib (NSC767125), rucaparib (NSC756644), sotorasib (NSC818433), MRTX-1133 (NSC836407), SN-38 (NSC673596), topotecan (NSC609699), epotoside (NSC141540), doxorubicin (NSC123127), gemcitabine (NSC613327), 5-fluorouracil (NSC19893), paclitaxel (NSC125973), vemurafenib (NSC761431), MSA-2 (NSC828583), SN-011 (NSC837082), adavosertib (NSC754352), prexasertib (NSC758257), carboplatin (NSC241240) and oxaliplatin (NSC266046), were obtained from the National Cancer Institute (NCI) Developmental Therapeutics Program Chemical Repository (21). The FDA-approved anticancer drug set is available from the Developmental Therapeutics Program at https://dtp.cancer.gov/organization/dscb/obtaining/. […] The stock solutions were prepared in dimethyl sulfoxide (DMSO, Sigma-Aldrich, St. Louis, MO, cat. D2650), except for the platinum compounds which were prepared in saline (Quality Biological, Gaithersburg, MD, cat. 114-055-101), at 800-fold the tested concentration and stored at -70 degrees C prior to their use. All drugs and investigational agents were tested over a range starting from a high concentration at or near the clinical Cmax and decreasing in half-log increments. If the clinical Cmax for an agent had not been determined, the highest concentration tested was 10 microM, except for SN-38, which was tested at a high concentration of 1 microM.
Cell Culture. All cells were maintained in an incubator at 37 degrees C and 5% CO2 with 95% humidity. The PDC lines were cultured according to standard operating procedures established by the NCI PDMR (https://pdmr.cancer.gov). Table 3 of the manuscript, lists the cell lines along with the number of the three cell types plated to form the mct-spheroids and media for tumor cell growth. After thawing, all PDC lines, except 997537-175-T-J1-PDC and 415267-285-R-J2-PDC, were cultured in Matrigel-coated flasks prepared with a working solution of 1X Ham's F-12 nutrient mix, without supplementation (Thermo Fisher Scientific, cat. 11765054), 100 U/mL penicillin-streptomycin (Thermo Fisher Scientific, cat. 15140122), and 2.5% Matrigel (Corning Inc., Corning, NY, cat. 354248) for the first three passages. The two PDC lines 997537-175-T-J1-PDC and 415267-285-R-J2-PDC were cultured on uncoated flasks. The 857933-349-R-J2-PDC line was cultured in 6C/Colon 1B media containing advanced DMEM/F-12 (Thermo Fisher Scientific, cat. 12634028), 10 mM HEPES (Thermo Fisher Scientific, cat. 15630080), 1X GlutaMAX supplement (Thermo Fisher Scientific, cat. 35050061), 0.1 mg/mL primocin (InvivoGen, San Diego, CA, cat. ant-pm-2), 10% defined fetal bovine serum, heat inactivated (HyClone Laboratories Inc., Logan, UT, cat. SH30070.03HI), 50% L-WRN conditioned media (ATCC, cat. CRL-3276), 1.25 mM N-Acetyl-L-cysteine (Sigma-Aldrich, cat. A9165), 10 mM nicotinamide (Sigma-Aldrich, cat. N0636), 1X B-27 supplement (Thermo Fisher Scientific, cat. 17504044), 1X N-2 supplement (Thermo Fisher Scientific, cat. […]
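Further: spheroids exposed to drugs for seven days before viability read; 100% = DMSO vehicle control wells.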

Structure (SMILES)	viability, T/C
CCc1c2c(nc3ccc(O)cc13)-c1cc3c(c(=O)n1C2)COC(=O)[C@]3(O)CC + Cc1cccc(N(C)C(=O)C2C(O)CCN2c2nc(C)cc(C(F)(F)F)c2C#N)c1	115%

Same assay, conditions: second compound 10 µM; first compound 0.01 µM; hits give low values

Structure (SMILES)	viability, T/C
CCc1c2c(nc3ccc(O)cc13)-c1cc3c(c(=O)n1C2)COC(=O)[C@]3(O)CC + Cc1cccc(N(C)C(=O)C2C(O)CCN2c2nc(C)cc(C(F)(F)F)c2C#N)c1	66.9%

Same assay, conditions: second compound 10 µM; first compound 0.0316 µM; hits give low values

Structure (SMILES)	viability, T/C
CCc1c2c(nc3ccc(O)cc13)-c1cc3c(c(=O)n1C2)COC(=O)[C@]3(O)CC + Cc1cccc(N(C)C(=O)C2C(O)CCN2c2nc(C)cc(C(F)(F)F)c2C#N)c1	43.2%
O=c1[nH]cc(F)c(=O)[nH]1 + COC1C(OC(N)=O)C(O)C(Oc2ccc3c(O)c(NC(=O)c4ccc(O)c(CC=C(C)C)c4)c(=O)oc3c2C)OC1(C)C	76.6%
COc1cc2cc(C(=O)CCC(=O)O)sc2cc1OC + Nc1ccc(C#CCN(C(=O)Cc2ncc(C(F)(F)F)cc2C(F)(F)F)c2ccc(F)cc2)nn1	101%
C#Cc1c(F)ccc2cc(O)cc(-c3ncc4c(N5CC6CCC(C5)N6)nc(OCC56CCCN5CC(F)C6)nc4c3F)c12 (centres undefined) + Cc1cccc(N(C)C(=O)C2C(O)CCN2c2nc(C)cc(C(F)(F)F)c2C#N)c1	85.4%

Same assay, conditions: second compound 10 µM; first compound 0.1 µM; hits give low values

Structure (SMILES)	viability, T/C
CCc1c2c(nc3ccc(O)cc13)-c1cc3c(c(=O)n1C2)COC(=O)[C@]3(O)CC + Cc1cccc(N(C)C(=O)C2C(O)CCN2c2nc(C)cc(C(F)(F)F)c2C#N)c1	45.9%
O=c1[nH]cc(F)c(=O)[nH]1 + COC1C(OC(N)=O)C(O)C(Oc2ccc3c(O)c(NC(=O)c4ccc(O)c(CC=C(C)C)c4)c(=O)oc3c2C)OC1(C)C	82.4%
COc1cc2cc(C(=O)CCC(=O)O)sc2cc1OC + Nc1ccc(C#CCN(C(=O)Cc2ncc(C(F)(F)F)cc2C(F)(F)F)c2ccc(F)cc2)nn1	95.8%
C#Cc1c(F)ccc2cc(O)cc(-c3ncc4c(N5CC6CCC(C5)N6)nc(OCC56CCCN5CC(F)C6)nc4c3F)c12 (centres undefined) + Cc1cccc(N(C)C(=O)C2C(O)CCN2c2nc(C)cc(C(F)(F)F)c2C#N)c1	73.7%

Same assay, conditions: second compound 10 µM; first compound 0.316 µM; hits give low values

Structure (SMILES)	viability, T/C
CCc1c2c(nc3ccc(O)cc13)-c1cc3c(c(=O)n1C2)COC(=O)[C@]3(O)CC + Cc1cccc(N(C)C(=O)C2C(O)CCN2c2nc(C)cc(C(F)(F)F)c2C#N)c1	35%
O=c1[nH]cc(F)c(=O)[nH]1 + COC1C(OC(N)=O)C(O)C(Oc2ccc3c(O)c(NC(=O)c4ccc(O)c(CC=C(C)C)c4)c(=O)oc3c2C)OC1(C)C	91.5%
COc1cc2cc(C(=O)CCC(=O)O)sc2cc1OC + Nc1ccc(C#CCN(C(=O)Cc2ncc(C(F)(F)F)cc2C(F)(F)F)c2ccc(F)cc2)nn1	101%
C#Cc1c(F)ccc2cc(O)cc(-c3ncc4c(N5CC6CCC(C5)N6)nc(OCC56CCCN5CC(F)C6)nc4c3F)c12 (centres undefined) + Cc1cccc(N(C)C(=O)C2C(O)CCN2c2nc(C)cc(C(F)(F)F)c2C#N)c1	61.5%

Same assay, conditions: second compound 10 µM; first compound 1 µM; hits give low values

Structure (SMILES)	viability, T/C
CCc1c2c(nc3ccc(O)cc13)-c1cc3c(c(=O)n1C2)COC(=O)[C@]3(O)CC + Cc1cccc(N(C)C(=O)C2C(O)CCN2c2nc(C)cc(C(F)(F)F)c2C#N)c1	31.5%
O=c1[nH]cc(F)c(=O)[nH]1 + COC1C(OC(N)=O)C(O)C(Oc2ccc3c(O)c(NC(=O)c4ccc(O)c(CC=C(C)C)c4)c(=O)oc3c2C)OC1(C)C	67.3%
COc1cc2cc(C(=O)CCC(=O)O)sc2cc1OC + Nc1ccc(C#CCN(C(=O)Cc2ncc(C(F)(F)F)cc2C(F)(F)F)c2ccc(F)cc2)nn1	103%
C#Cc1c(F)ccc2cc(O)cc(-c3ncc4c(N5CC6CCC(C5)N6)nc(OCC56CCCN5CC(F)C6)nc4c3F)c12 (centres undefined) + Cc1cccc(N(C)C(=O)C2C(O)CCN2c2nc(C)cc(C(F)(F)F)c2C#N)c1	38.6%

Same assay, conditions: second compound 10 µM; first compound 3.16 µM; hits give low values

Structure (SMILES)	viability, T/C
O=c1[nH]cc(F)c(=O)[nH]1 + COC1C(OC(N)=O)C(O)C(Oc2ccc3c(O)c(NC(=O)c4ccc(O)c(CC=C(C)C)c4)c(=O)oc3c2C)OC1(C)C	52.3%
COc1cc2cc(C(=O)CCC(=O)O)sc2cc1OC + Nc1ccc(C#CCN(C(=O)Cc2ncc(C(F)(F)F)cc2C(F)(F)F)c2ccc(F)cc2)nn1	82%
C#Cc1c(F)ccc2cc(O)cc(-c3ncc4c(N5CC6CCC(C5)N6)nc(OCC56CCCN5CC(F)C6)nc4c3F)c12 (centres undefined) + Cc1cccc(N(C)C(=O)C2C(O)CCN2c2nc(C)cc(C(F)(F)F)c2C#N)c1	36.6%

Same assay, conditions: second compound 10 µM; first compound 10 µM; hits give low values

Structure (SMILES)	viability, T/C
O=c1[nH]cc(F)c(=O)[nH]1 + COC1C(OC(N)=O)C(O)C(Oc2ccc3c(O)c(NC(=O)c4ccc(O)c(CC=C(C)C)c4)c(=O)oc3c2C)OC1(C)C	51.3%
COc1cc2cc(C(=O)CCC(=O)O)sc2cc1OC + Nc1ccc(C#CCN(C(=O)Cc2ncc(C(F)(F)F)cc2C(F)(F)F)c2ccc(F)cc2)nn1	74.5%
C#Cc1c(F)ccc2cc(O)cc(-c3ncc4c(N5CC6CCC(C5)N6)nc(OCC56CCCN5CC(F)C6)nc4c3F)c12 (centres undefined) + Cc1cccc(N(C)C(=O)C2C(O)CCN2c2nc(C)cc(C(F)(F)F)c2C#N)c1	29.6%
